Experimental data taken from patent US10125100B2, “Kinase inhibitors” (Respivert Limited, priority 2014, dated 2018).
Counter-ions that a name gives are not always drawn. Like-named read-outs stand apart in the source and are kept apart here.

What was measured:
[1] = system: mitosis in PBMCs; assay: (g) Cell mitosis assay; assay type: cell-based; settings: Homo sapiens, PBMC, 5 μg/mL
Protocol: Peripheral blood mononucleocytes (PBMCs) from healthy subjects are separated from whole blood (Quintiles, London, UK) using a density gradient (Histopaque®-1077, Sigma-Aldrich, Poole, UK). The PBMCs (3 million cells per sample) are subsequently treated with 2% PHA (phytohaemagglutinin, Sigma-Aldrich, Poole, UK) for 48 hr, followed by a 20 hr exposure to varying concentrations of test compounds. At 2 hr before collection, PBMCs are treated with demecolcine (0.1 μg/mL; Invitrogen, Paisley, UK) to arrest cells in metaphase. To observe mitotic cells, PBMCs are permeabilized and fixed by adding Intraprep (50 μL; Beckman Coulter, France), and stained with anti-phospho-histone 3 ([…]; #9701; Cell Signalling, Danvers, Mass.) and propidium iodide (1 mg/mL; Sigma-Aldrich, Poole, UK) as previously described (Muehlbauer P. A. and Schuler M. J., Mutation Research, 2003, 537:117-130). Fluorescence is observed using an ATTUNE flow cytometer (Invitrogen, Paisley, UK), gating for lymphocytes.

[2] = molecular target: p38 MAPKα (MAPK14) (Homo sapiens (Human), UniProt Q16539); assay: p38 MAPKα enzyme inhibition (Method 2), Z-LYTE FRET; assay type: biochemical
Outline: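 Enzyme (200 ng/mL solution) was preincubated 2 h at RT with compound solutions of 1, 0.1, 0.01 or 0.001 μg/mL, and inhibition was read indirectly via MAPKAP-K2 activation/phosphorylation. After a 1 h RT reaction and 1 h protease development, phosphorylation was derived from the coumarin/fluorescein emission ratio.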

[3] = system: Jurkat cells; assay: (r) Cell cytotoxicity assay; assay type: cell-based, human; settings: 24 hours
Outline: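 Jurkat cells (1×10^5/well, RPMI + 10% FBS) exposed to compound at 20, 5 or 1 μg/mL final (1.0% DMSO control) for 24 h at 37° C., 5% CO2. Then stained with 7.5 μg/mL propidium iodide for 15 min. % viability = PI-negative cells by flow cytometry, normalized to DMSO.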

[4] = molecular target: c-Src (Homo sapiens (Human), UniProt P12931); assay: c-Src enzyme inhibition, Z-LYTE FRET; assay type: biochemical
Outline: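 Human Syk and c-Src (enzyme at 2000 or 3000 ng/mL respectively, pre-dilution) preincubated 2 hr at RT with compound at 1, 0.1, 0.01 or 0.001 μg/mL; FRET peptide added with ATP (60 μM Syk, 800 μM c-Src; solution concentrations), 1 hr. Protease development 1 hr; phosphorylation from coumarin/fluorescein emission ratio.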

[5] = molecular target: Syk (Homo sapiens (Human), UniProt P43405); assay: Syk enzyme inhibition, Z-LYTE FRET; assay type: biochemical
Outline: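 Syk or c-Src enzyme (3000 or 2000 ng/mL solutions) was preincubated 2 h at RT with compound solutions at 1, 0.1, 0.01 or 0.001 µg/mL. Z-LYTE FRET peptide (8 µM solution) and ATP (800 µM solution for c-Src, 60 µM for Syk) were then added for 1 h, followed by protease development for 1 h. Phosphorylation was read as the coumarin/fluorescein emission ratio.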

[6] = Pharmacokinetics and total colon distribution after oral administration; assay type: in vivo; settings: male, C57BL/6, mouse, mice, oral 5 mg/kg, dosed compound measured
Protocol: Studies were conducted by Sai Life Sciences (Hinjewadi, Pune, India) to investigate the systemic pharmacokinetics and total colon tissue distribution of compounds of the invention. In particular, pharmacokinetic studies were carried out in male C57BL/6 mice following a single oral administration of the compound.

[7] = Stability of pharmaceutical formulations; assay type: physicochemical; settings: Sample 1; 40° C.; 4 weeks
Protocol: The samples were sonicated to achieve clear solutions having the following properties: Osmolality (mOsm/kg): 310 (Na), 314 (HCl); pH: 7.00 (Na), 7.05 (HCl). 0.5 mL of the stock solutions were diluted to 1 mL with 20% DMSO in water & injected for purity analysis by HPLC. The remaining stock solutions were then split into aliquots of 0.5 mL in HPLC vials, and stored at various conditions in duplicate. Samples were stored at 5 and 25° C., before being analysed by HPLC at 1, 2 and 4 weeks. Separate samples were stored at 40° C. and analysed at 4 weeks.

[8] = blood, read-out: Mean blood concentration
[9] = total colon, read-out: total colon level

c-Src, sequence (P12931 whole entry, looked up): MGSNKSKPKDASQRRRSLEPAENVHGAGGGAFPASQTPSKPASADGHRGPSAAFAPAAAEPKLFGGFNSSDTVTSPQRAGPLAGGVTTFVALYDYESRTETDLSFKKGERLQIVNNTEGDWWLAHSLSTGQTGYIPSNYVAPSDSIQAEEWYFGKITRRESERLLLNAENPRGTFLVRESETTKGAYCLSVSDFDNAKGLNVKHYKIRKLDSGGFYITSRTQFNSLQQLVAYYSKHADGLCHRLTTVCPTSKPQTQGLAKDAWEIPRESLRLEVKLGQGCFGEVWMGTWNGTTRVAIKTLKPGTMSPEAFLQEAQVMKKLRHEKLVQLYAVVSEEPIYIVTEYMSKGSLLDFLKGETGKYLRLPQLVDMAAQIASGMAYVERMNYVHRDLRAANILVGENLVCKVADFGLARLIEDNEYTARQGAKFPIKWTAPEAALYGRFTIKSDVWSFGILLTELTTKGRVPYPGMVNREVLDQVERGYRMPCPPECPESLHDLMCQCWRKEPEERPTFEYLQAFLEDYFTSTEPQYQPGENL
p38 MAPKα (MAPK14), sequence (Q16539 whole entry): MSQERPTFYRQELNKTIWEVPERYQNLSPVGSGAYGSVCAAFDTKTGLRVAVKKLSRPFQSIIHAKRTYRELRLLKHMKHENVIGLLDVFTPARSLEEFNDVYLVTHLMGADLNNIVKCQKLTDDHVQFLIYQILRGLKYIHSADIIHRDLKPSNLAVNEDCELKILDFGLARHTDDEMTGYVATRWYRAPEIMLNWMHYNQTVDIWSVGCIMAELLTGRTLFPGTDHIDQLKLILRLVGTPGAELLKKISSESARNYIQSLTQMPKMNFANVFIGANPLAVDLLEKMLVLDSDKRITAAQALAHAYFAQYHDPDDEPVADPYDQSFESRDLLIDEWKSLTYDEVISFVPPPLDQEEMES

Row | SMILES | IC50 [2] [nM] | IC50 [4] [nM] | IC50 [5] [nM] | inhibition at 5 µg/mL [1] [%] | % Viability at 1 μg/mL [3] [%] | % Viability at 5 μg/mL [3] [%] | % Viability at 20 μg/mL [3] [%] | further results
1 | COc1cc(Nc2cc(Oc3ccc(NC(=O)Nc4cc(C(C)(C)C)cc(NS(C)(=O)=O)c4OC)c4ccccc34)ccn2)ccc1C(=O)NCCOCCOCCO [Example 16, 4-[[4-[[4-[[5-tert-Butyl-3-(methanesulfonamido)-2-methoxy-phenyl]carbamoylamino]-1-naphthyl]oxy]-2-pyridyl]amino]-N-[2-[2-(2-hydroxyethoxy)ethoxy]ethyl]-2-methoxy-benzamide] | 34 | 22 | 107 | 50.1 | 90.1 | 52.5 | 19.1 | –
2 | COc1cc(Nc2cc(Oc3ccc(NC(=O)Nc4cc(C(C)(C)C)cc(NS(C)(=O)=O)c4OC)c4ccccc34)ccn2)ccc1C(=O)NCCCN1CCOCC1 [17(b), 4-[[4-[[4-[[5-tert-butyl-3-(methanesulfonamido)-2-methoxy-phenyl]carbamoylamino]-1-naphthyl]oxy]-2-pyridyl]amino]-2-methoxy-N-(3-morpholinopropyl)benzamide] | 52 | 20 | 98 | 58.9 | 102.8 | 93.8 | 79.3 | –
3 | COc1cc(Nc2cc(Oc3ccc(NC(=O)Nc4cc(C(C)(C)C)cc(NS(C)(=O)=O)c4OC)c4ccccc34)ccn2)ccc1C(=O)NCCOCCOCCOP(=O)(O)O [Example 19, 2-(2-(2-(4-((4-((4-(3-(5-(tert-Butyl)-2-methoxy-3-(methylsulfonamido)phenyl)ureido)-naphthalen-1-yl)oxy)pyridin-2-yl)amino)-2-methoxybenzamido)ethoxy)ethoxy)ethyl dihydrogen phosphate] | – | – | – | – | 105.0 | 106.0 | 100.9 | concentration at 0.5 h [6, 8]: 0 ng/mL; concentration at 1 h [6, 8]: 0 ng/mL; concentration at 2 h [6, 8]: 0 ng/mL; concentration at 4 h [6, 8]: 0 ng/mL; concentration at 6 h [6, 8]: 0 ng/mL; concentration at 8 h [6, 8]: 0 ng/mL; concentration at 12 h [6, 8]: 0 ng/mL; concentration at 24 h [6, 8]: 0 ng/mL; concentration at 0.5 h [6, 9]: 0 ng/g; concentration at 1 h [6, 9]: 0 ng/g; concentration at 2 h [6, 9]: 0 ng/g; concentration at 4 h [6, 9]: 0 ng/g; concentration at 6 h [6, 9]: 0 ng/g; concentration at 8 h [6, 9]: 0 ng/g; concentration at 12 h [6, 9]: 0 ng/g; concentration at 24 h [6, 9]: 0 ng/g
4 | COc1cc(Nc2cc(Oc3ccc(NC(=O)Nc4cc(C(C)(C)C)cc(NS(C)(=O)=O)c4OC)c4ccccc34)ccn2)ccc1C(=O)NCCC1CCN(C)CC1 [Example 14, 4-[[4-[[4-[[5-tert-Butyl-3-(methanesulfonamido)-2-methoxy-phenyl]carbamoylamino]-1-naphthyl]oxy]-2-pyridyl]amino]-2-methoxy-N-[2-(1-methyl-4-piperidyl)ethyl]benzamide] | 10 | 19 | 92 | 60.1 | 101.9 | 98.8 | 0.7 | –
5 | COc1cc(Nc2cc(Oc3ccc(NC(=O)Nc4cc(C(C)(C)C)cc(NS(C)(=O)=O)c4OC)c4ccccc34)ccn2)ccc1C(=O)O [Example 1, sodium salt] | – | – | – | – | – | – | – | Purity at week n = 4 [7]: 76.0%

More lines, main results first:

Row | IC50 [2] [nM] | IC50 [4] [nM] | IC50 [5] [nM] | SMILES | inhibition at 5 µg/mL [1] [%] | % Viability at 1 μg/mL [3] [%] | % Viability at 5 μg/mL [3] [%] | % Viability at 20 μg/mL [3] [%] | further results
6 | 10 | 31 | 112 | COc1cc(Nc2cc(Oc3ccc(NC(=O)Nc4cc(C(C)(C)C)cc(NS(C)(=O)=O)c4OC)c4ccccc34)ccn2)cc(OC)c1C(=O)NCCN1CCOCC1 [17(ae), 4-[[4-[[4-[[5-tert-butyl-3-(methanesulfonamido)-2-methoxy-phenyl]carbamoylamino]-1-naphthyl]oxy]-2-pyridyl]amino]-2,6-dimethoxy-N-(2-morpholinoethyl)benzamide] | 30.6 | 93.1 | 98.5 | 92.9 | –
7 | 64 | 43 | 163 | C#Cc1cc(Nc2cc(Oc3ccc(NC(=O)Nc4cc(C(C)(C)C)cc(NS(C)(=O)=O)c4OC)c4ccccc34)ccn2)ccc1C(=O)NCCN1CCOCC1 [Example 15, 4-[[4-[[4-[[5-tert-Butyl-3-(methanesulfonamido)-2-methoxy-phenyl]carbamoylamino]-1-naphthyl]oxy]-2-pyridyl]amino]-2-ethynyl-N-(2-morpholinoethyl)benzamide] | 62.3 | 99.5 | 75.0 | 74.5 | –
8 | 23 | 209 | 831 | COCCOCCOCCS(=O)(=O)c1ccc(Nc2cc(Oc3ccc(NC(=O)Nc4cc(C(C)(C)C)cc(NS(C)(=O)=O)c4OC)c4ccccc34)ccn2)cc1OC [Example 12, 1-[5-tert-Butyl-3-(methanesulfonamido)-2-methoxy-phenyl]-3-[4-[[2-[3-methoxy-4-[2-[2-(2-methoxyethoxy)ethoxy]ethylsulfonyl]anilino]-4-pyridyl]oxy]-1-naphthyl]urea] | 22.1 | 74.5 | 81.8 | 82.9 | –
9 | 223 | 116 | 389 | COc1cc(Nc2cc(Oc3ccc(NC(=O)Nc4cc(C(C)(C)C)cc(NS(C)(=O)=O)c4OC)c4ccccc34)ccn2)ccc1C(=O)NCCN1CCSCC1 [17(l), 4-[[4-[[4-[[5-tert-butyl-3-(methanesulfonamido)-2-methoxy-phenyl]carbamoylamino]-1-naphthyl]oxy]-2-pyridyl]amino]-2-methoxy-N-(2-thiomorpholinoethyl)benzamide] | 24.9 | 102.8 | 102.7 | 102.9 | –
